These results are taken from ChEMBL document CHEMBL1133025, “The utilization of a unified pharmacophore query in the discovery of new antagonists of the adenosine receptor family” (Bioorg Med Chem Lett, 2000).

Experiment [1] deals with T1, Adenosine receptor A3 (Homo sapiens, UniProt P0DMS8).
T1 sequence (P0DMS8 whole entry): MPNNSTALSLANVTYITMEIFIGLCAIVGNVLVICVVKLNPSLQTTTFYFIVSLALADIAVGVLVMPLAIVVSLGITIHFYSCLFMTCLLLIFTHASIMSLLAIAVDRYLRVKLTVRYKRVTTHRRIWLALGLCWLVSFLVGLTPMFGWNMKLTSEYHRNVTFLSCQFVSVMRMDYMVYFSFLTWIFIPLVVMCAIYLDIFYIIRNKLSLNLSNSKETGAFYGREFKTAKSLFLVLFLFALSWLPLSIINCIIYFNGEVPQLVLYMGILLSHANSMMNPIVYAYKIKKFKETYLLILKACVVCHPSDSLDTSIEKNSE
Description: Inhibition of [35S]GTP-gamma-S, binding stimulated by 20 uM 5''-N-ethyluronamidoadenosine (NECA) in membranes of HEK293 cells expressing human Adenosine A3 receptor. The format is functional, cell membranes. Background: Binding of GTPγS marks nucleotide exchange on a G protein.

Experiment [2] concerns the target T1, Adenosine receptor A3. Put plainly: In vitro binding affinity against human Adenosine A3 receptor.
Experiment [3] addresses T2, Adenosine receptor A3 (Homo sapiens) (UniProt P0DMS8).
T2 sequence (whole entry): T1 sequence (P0DMS8 whole entry)
Description: In vitro inhibitory activity against human Adenosine A3 receptor at 10e-5 M.

The target of experiment [4] is T1, Adenosine receptor A3. Description: Inhibition of [35S]GTP-gamma-S, binding stimulated by 5 uM 5''-N-ethyluronamidoadenosine (NECA) in membranes of HEK293 cells expressing human Adenosine A3 receptor. The class given is functional, cell membranes.

As to `COc1ccc(-c2csc(NC3OC(=O)c4c3ccc(OC)c4OC)n2)cc1` (stereo unspecified), in experiment [1], the IC50 (commonly the concentration that inhibits the measured activity by half) amounted to 255 nM. For the same compound, in experiment [2], the affinity corresponds to a Ki of 1300 nM.

Take `CC(NC(=O)OCc1ccccc1)C(=O)Oc1cc(O)c2c(=O)cc(-c3ccccc3)oc2c1` (stereo unspecified): the inhibition (usually the drop in the measured response relative to a control, in per cent) in experiment [3] stood at 60%.

In experiment [3], `COc1ccc(N(CC(=O)Nc2cccc(Cl)c2C)S(=O)(=O)c2ccccc2)cc1` showed an inhibition of 65%.

In experiment [3], `O=C(NCCc1c[nH]c2ccc(OCc3ccccc3)cc12)c1ccco1` had an inhibition of 70%.

As to `CCOC(=O)c1c(NC(=O)Cc2ccccc2)sc2c1CCN(C(=O)OCC)C2`, the 50% inhibitory concentration (IC50) in experiment [1] was determined as 186 nM. In experiment [2], the Ki – broadly, a dissociation constant, usually derived from enzyme kinetics or from competition with a known ligand – turned out to be 600 nM.

In experiment [4], `CCOC(=O)CNC(c1ccccc1)c1cc(Br)ccc1NC(=O)c1ccccc1` (stereo unspecified) gave an IC50 of 407 nM. The compound also gave a Ki in experiment [2] of 3100 nM.

In experiment [3], `Cc1ccc(N(CC(=O)N/N=C/c2ccccc2O)S(=O)(=O)c2ccccc2)cc1` displayed an inhibition of 65%.

Consider `CCSc1nnc2c(n1)OC(c1ccc(-c3ccc(Cl)cc3)o1)Nc1ccccc1-2` (stereo unspecified), for which, in experiment [3], the inhibition is 60%.
